Reference: PubChem BioAssay (NCI)
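Each compound was tested at five concentrations against cells in 96-well plates for 48 hours. Here, GI50 denotes the concentration required for 50% inhibition of growth. TGI: total growth inhibition.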

What was measured:
Experiment in all cases: growth of human tumour cells (NCI), 48 h
T-47D breast = system: T-47D breast
HCT-15 colon = system: HCT-15 colon
EKVX NSCLC = system: EKVX NSCLC
HL-60(TB) leukemia = system: HL-60(TB) leukemia
UACC-62 melanoma = system: UACC-62 melanoma
BT-549 breast = system: BT-549 breast
MDA-MB-435 = system: MDA-MB-435
HT29 colon = system: HT29 colon
RPMI-8226 leukemia = system: RPMI-8226 leukemia
786-0 renal = system: 786-0 renal
MCF7 breast = system: MCF7 breast
MOLT-4 leukemia = system: MOLT-4 leukemia
SK-MEL-5 melanoma = system: SK-MEL-5 melanoma
HOP-92 NSCLC = system: HOP-92 NSCLC
SNB-19 CNS = system: SNB-19 CNS
OVCAR-4 ovarian = system: OVCAR-4 ovarian
MDA-MB-468 breast = system: MDA-MB-468 breast
NCI-H522 lung = system: NCI-H522 lung
NCI-H226 lung = system: NCI-H226 lung
MALME-3M melanoma = system: MALME-3M melanoma
TK-10 renal = system: TK-10 renal
NCI-H23 lung = system: NCI-H23 lung
SF-268 CNS = system: SF-268 CNS
SN12C renal = system: SN12C renal
HOP-62 NSCLC = system: HOP-62 NSCLC
HCC-2998 colon = system: HCC-2998 colon
OVCAR-5 ovarian = system: OVCAR-5 ovarian
OVCAR-8 ovarian = system: OVCAR-8 ovarian

`O=C1NC(=S)/C(=C/c2cn(-c3ccccc3)nc2-c2ccccc2)S1` showed a GI50 (T-47D breast) of 4.41 µM, a TGI (T-47D breast) greater than 100 µM and a GI50 (HCT-15 colon) of 4.29 µM. It also gave a TGI (HCT-15 colon) of 33.8 µM, a GI50 (EKVX NSCLC) of 4.1 µM and a TGI (EKVX NSCLC) greater than 100 µM. It also gave a GI50 (HL-60(TB) leukemia) of 3.94 µM, a TGI (HL-60(TB) leukemia) of 36.6 µM and a GI50 (UACC-62 melanoma) of 3.49 µM. The TGI (UACC-62 melanoma) was 15.3 µM, the GI50 (BT-549 breast) was 2.65 µM and the TGI (BT-549 breast) was 11.3 µM. It also gave a GI50 (MDA-MB-435) of 5.49 µM, a TGI (MDA-MB-435) greater than 100 µM and a GI50 (HT29 colon) of 9.99 µM. The TGI (HT29 colon) was 37.1 µM, the GI50 (RPMI-8226 leukemia) was 3.57 µM and the TGI (RPMI-8226 leukemia) was 94.7 µM. For the same molecule, the GI50 (786-0 renal) was 4.79 µM, the TGI (786-0 renal) was greater than 100 µM and the GI50 (MCF7 breast) was 4.03 µM. For the same molecule, the TGI (MCF7 breast) was greater than 100 µM, the GI50 (MOLT-4 leukemia) was 3.91 µM and the TGI (MOLT-4 leukemia) was 34.4 µM. For the same molecule, the GI50 (SK-MEL-5 melanoma) was 2.59 µM, the TGI (SK-MEL-5 melanoma) was 7.45 µM and the GI50 (HOP-92 NSCLC) was 2.3 µM. For the same molecule, the TGI (HOP-92 NSCLC) was 9.73 µM, the GI50 (SNB-19 CNS) was 4.91 µM and the TGI (SNB-19 CNS) was greater than 100 µM. The GI50 (OVCAR-4 ovarian) was 5.24 µM, the TGI (OVCAR-4 ovarian) was greater than 100 µM and the GI50 (MDA-MB-468 breast) was 3.13 µM. For the same molecule, the TGI (MDA-MB-468 breast) was 21.8 µM, the GI50 (NCI-H522 lung) was 4.39 µM and the TGI (NCI-H522 lung) was 19.3 µM. For the same molecule, the GI50 (NCI-H226 lung) was 13.4 µM, the TGI (NCI-H226 lung) was greater than 100 µM and the GI50 (MALME-3M melanoma) was 4.85 µM. The TGI (MALME-3M melanoma) was 35.8 µM, the GI50 (TK-10 renal) was 12.5 µM and the TGI (TK-10 renal) was greater than 100 µM. For the same molecule, the GI50 (NCI-H23 lung) was 4.86 µM, the TGI (NCI-H23 lung) was 51.6 µM and the GI50 (SF-268 CNS) was 6.07 µM. For the same molecule, the TGI (SF-268 CNS) was greater than 100 µM, the GI50 (SN12C renal) was 4.73 µM and the TGI (SN12C renal) was greater than 100 µM. The GI50 (HOP-62 NSCLC) was 22.8 µM, the TGI (HOP-62 NSCLC) was greater than 100 µM and the GI50 (HCC-2998 colon) was 10.6 µM. For the same molecule, the TGI (HCC-2998 colon) was 44.6 µM, the GI50 (OVCAR-5 ovarian) was 22 µM and the TGI (OVCAR-5 ovarian) was greater than 100 µM. It also gave a GI50 (OVCAR-8 ovarian) of 16.1 µM.
